For 8 molecules, IC50 results are on record in patent US11059794B2, “Heterocyclic compounds useful as dual ATX/CA inhibitors” (Hoffmann-La Roche Inc., priority 2017, dated 2021).

In general, IC50 refers to the point on the concentration scale where inhibition reaches its midpoint.

One experiment concerns the target ATX (human His-tagged) (Homo sapiens (Human), UniProt Q13822). Briefly: Human ATX enzyme inhibition assay (fluorescence quenching, MR121 substrate). The format is biochemical. Particulars: 30 nM ATX, 1 μM MR121 substrate, 30° C.
For experiment [1], the target named is Human carbonic anhydrase II (hCA-II) (Homo sapiens (Human), UniProt P00918). Briefly: Human carbonic anhydrase-II inhibition assay (absorbance, 4-nitrophenyl acetate substrate). In kind it is biochemical. As to conditions: 8 nM hCA II, 2.5 mM 4-NPA, absorbance 340 nm, 1 hour room temperature; read-out: CA-II IC50.

The molecule `Cc1nnn(Cc2cc(Cl)cnc2COC(=O)N2CCC(S(=O)(=O)c3ccc(S(N)(=O)=O)cc3F)CC2)n1` [Example 1.03, [5-chloro-3-[(5-methyltetrazol-2-yl)methyl]pyridin-2-yl]methyl 4-(2-fluoro-4-sulfamoylphenyl)sulfonylpiperidine-1-carboxylate] returned an IC50 on ATX (human His-tagged) of 73 nM.
On the same count and under the same terms, with `Cc1nnn(Cc2cc(C(F)(F)F)ccc2COC(=O)N2CCC(S(=O)(=O)c3ccc(S(N)(=O)=O)cc3F)CC2)n1` [Example 1.04, [2-[(5-methyltetrazol-2-yl)methyl]-4-(trifluoromethyl)phenyl]methyl 4-(2-fluoro-4-sulfamoylphenyl)sulfonylpiperidine-1-carboxylate] the figure was 8 nM.
For `NS(=O)(=O)c1ccc(CN2CCN(C(=O)c3cc(OCC4CCOCC4)nc(C4CC4)c3)CC2)c(F)c1` [Example 2.02, 4-[[4-[2-cyclopropyl-6-(oxan-4-ylmethoxy)pyridine-4-carbonyl]piperazin-1-yl]methyl]-3-fluorobenzenesulfonamide], the values for the half-inhibitory concentration (IC50) (against ATX (human His-tagged); in experiment [1]) were 7 nM and 15.5 nM, respectively.
In the case of `Cc1nnn(Cc2cc(C(F)(F)F)ccc2CCC(=O)N2CCC(CC[S+]([O-])c3ncc(S(N)(=O)=O)s3)CC2)n1` (stereo not shown) [Example 6.06, 2-[2-[1-[3-[2-[(5-methyltetrazol-2-yl)methyl]-4-(trifluoromethyl)phenyl]propanoyl]piperidin-4-yl]ethylsulfinyl]-1,3-thiazole-5-sulfonamide], the IC50 is 4 nM on ATX (human His-tagged) and 14 nM in experiment [1].
As to `Cc1nnn(Cc2cc(OC(F)F)ccc2CCC(=O)N2CCC(CC[S+]([O-])c3ccc(S(N)(=O)=O)c(F)c3F)CC2)n1` (stereo not shown) [Example 6.42, 4-[2-[1-[3-[4-(difluoromethoxy)-2-[(5-methyltetrazol-2-yl)methyl]phenyl]propanoyl]piperidin-4-yl]ethylsulfinyl]-2,3-difluorobenzenesulfonamide], on ATX (human His-tagged), the IC50 turned out to be 3 nM.
On ATX (human His-tagged), `Cc1nnn(Cc2cc(C(F)(F)F)ccc2CCC(=O)N2CCC(CC[S+]([O-])c3ccc(S(N)(=O)=O)c(F)c3F)CC2)n1` (stereo not shown) [Example 6.43, 2,3-difluoro-4-[2-[1-[3-[2-[(5-methyltetrazol-2-yl)methyl]-4-(trifluoromethyl)phenyl]propanoyl]piperidin-4-yl]ethylsulfinyl]benzenesulfonamide] showed an IC50 of 6 nM.
`Cc1nnn(Cc2cc(OC(F)F)ccc2CCC(=O)N2CCC(CC[S+]([O-])c3ncc(S(N)(=O)=O)s3)CC2)n1` (stereo not shown) [Example 6.44, 2-[2-[1-[3-[4-(difluoromethoxy)-2-[(5-methyltetrazol-2-yl)methyl]phenyl]propanoyl]piperidin-4-yl]ethylsulfinyl]-1,3-thiazole-5-sulfonamide] came in with a 50% inhibitory concentration (IC50) on ATX (human His-tagged) of 7 nM.
Consider `Cc1nnn(Cc2cc(C(F)(F)F)ccc2CCC(=O)N2CCN(Cc3ccc(S(N)(=O)=O)cc3)CC2)n1` [Example 9.00, 4-[[4-[3-[2-[(5-Methyltetrazol-2-yl)methyl]-4-(trifluoromethyl)phenyl]propanoyl]piperazin-1-yl]methyl]benzenesulfonamide], for which the IC50 against ATX (human His-tagged) amounted to 27 nM.
